Experimental data from patent US9161945B2, “4-isopropyl-6-methoxyphenyl glucitol compound” (TAISHO PHARMACEUTICAL CO., LTD., priority 2010, dated 2015).
Marks after values point to notes of the source that are not given here.

Tests used:
human SGLT2 = human SGLT2 (Homo sapiens (Human), UniProt P31639); assay: Inhibition test of sodium-dependent glucose uptake in CHO-K1 cells stably expressing human SGLT2; assay type: cell-based; conditions: [14C]methyl α-D-glucopyranoside uptake, 37° C., 60 minutes, read-out: IC50 for hSGLT2
Chain of human SGLT2 (P31639 whole entry): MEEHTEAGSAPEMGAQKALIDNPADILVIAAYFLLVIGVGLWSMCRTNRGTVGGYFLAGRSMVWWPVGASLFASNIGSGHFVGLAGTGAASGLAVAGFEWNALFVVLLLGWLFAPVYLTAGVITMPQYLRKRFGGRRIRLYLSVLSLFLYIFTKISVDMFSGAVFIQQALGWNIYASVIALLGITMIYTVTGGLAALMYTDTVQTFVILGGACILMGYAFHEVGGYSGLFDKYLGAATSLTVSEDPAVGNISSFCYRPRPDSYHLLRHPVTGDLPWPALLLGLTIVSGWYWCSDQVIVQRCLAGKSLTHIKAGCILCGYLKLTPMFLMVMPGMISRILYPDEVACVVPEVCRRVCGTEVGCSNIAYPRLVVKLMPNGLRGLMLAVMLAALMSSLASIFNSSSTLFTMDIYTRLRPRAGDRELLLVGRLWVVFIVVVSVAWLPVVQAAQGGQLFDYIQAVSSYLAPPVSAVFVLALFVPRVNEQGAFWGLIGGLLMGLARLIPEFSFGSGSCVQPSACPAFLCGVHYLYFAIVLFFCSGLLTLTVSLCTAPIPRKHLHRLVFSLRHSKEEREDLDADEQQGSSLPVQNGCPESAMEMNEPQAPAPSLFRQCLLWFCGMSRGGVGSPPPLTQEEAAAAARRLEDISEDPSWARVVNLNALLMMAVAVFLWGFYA
Method: (2) Creation of CHO-K1 Cells Stably Expressing Human SGLT2
A plasmid vector expressing human SGLT2 protein was transfected into CHO-K1 cells using Lipofectamine LTX (Invitrogen). The cells were cultured in the presence of 1000 μg/mL geneticin to select resistant strains, followed by screening in the system shown below using sugar uptake capacity as an indicator to obtain SGLT2-expressing cells.
(§1) (3) Inhibition Test of Sodium-Dependent Glucose Uptake in Stable Expression Cells
(§2) The stably expressing cells prepared above were used in the following test.
(§3) Pretreatment buffer (140 mM choline chloride, 2 mM KCl, 1 mM CaCl2, 1 mM MgCl2, 10 mM HEPES/5 mM Tris, pH 7.4) was added to the stably expressing cells, followed by incubation for 20 minutes. The pretreatment buffer was removed and replaced by uptake buffer containing a test compound (1 mM methyl α-D-glucopyranoside (containing [^14C]methyl α-D-glucopyranoside), 145 mM NaCl, 2 mM KCl, 1 mM CaCl2, 1 mM MgCl2, 10 mM HEPES/5 mM Tris, pH 7.4). Uptake reaction was performed at 37° C. for 30 minutes (SGLT1) or 60 minutes (SGLT2). […] A liquid scintillator (Perkin Elmer) was added and mixed well, followed by measurement of radioactivity using a β-ray analyzer. […]

human SGLT1 = human SGLT1 (Homo sapiens (Human), UniProt P13866); assay: Inhibition test of sodium-dependent glucose uptake in CHO-K1 cells stably expressing human SGLT1; assay type: cell-based; conditions: [14C]methyl α-D-glucopyranoside uptake, 37° C., 30 minutes, read-out: IC50 for hSGLT1
Chain of human SGLT1 (P13866 whole entry): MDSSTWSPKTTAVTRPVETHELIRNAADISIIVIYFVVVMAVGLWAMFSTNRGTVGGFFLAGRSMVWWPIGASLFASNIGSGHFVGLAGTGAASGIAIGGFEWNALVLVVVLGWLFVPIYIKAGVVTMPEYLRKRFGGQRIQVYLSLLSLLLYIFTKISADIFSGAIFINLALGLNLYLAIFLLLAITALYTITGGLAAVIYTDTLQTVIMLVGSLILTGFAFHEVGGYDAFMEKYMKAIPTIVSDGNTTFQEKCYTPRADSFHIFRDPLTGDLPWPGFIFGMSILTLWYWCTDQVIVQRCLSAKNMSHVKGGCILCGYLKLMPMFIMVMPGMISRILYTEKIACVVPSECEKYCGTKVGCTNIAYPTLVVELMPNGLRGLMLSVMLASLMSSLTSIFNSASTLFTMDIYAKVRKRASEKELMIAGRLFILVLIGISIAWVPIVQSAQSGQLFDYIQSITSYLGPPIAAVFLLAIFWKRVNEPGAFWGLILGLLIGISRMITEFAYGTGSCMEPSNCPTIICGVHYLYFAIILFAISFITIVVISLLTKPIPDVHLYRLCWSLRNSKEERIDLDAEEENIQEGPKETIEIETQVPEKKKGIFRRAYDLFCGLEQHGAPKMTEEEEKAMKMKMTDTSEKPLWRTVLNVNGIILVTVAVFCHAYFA
Method: (1) Creation of CHO-K1 Cells Stably Expressing Human SGLT1
A plasmid vector expressing human SGLT1 protein was transfected into CHO-K1 cells using Lipofectamine 2000 (Invitrogen). The cells were cultured in the presence of 500 μg/mL geneticin to select resistant strains, followed by screening in the system shown below using sugar uptake capacity as an indicator to obtain SGLT1-expressing cells.
as §1, §2, §3

[1] = Renal concentrations after repeated oral administration for 3 days; assay type: in vivo, SD/IGS rats
Method: (2) Renal Concentrations of the Compound (I) of the Present Invention After Repeated Oral Administration for 3 Days
SD/IGS rats at 7 weeks of age (male, non-fasting, Charles River Laboratories Japan Inc.) were orally administered once a day for 3 consecutive days with the compound (I) (3 mg/kg) prepared in a 0.5% aqueous solution of CMC. At 48 hours after the final drug administration, the rats were exsanguinated via the postcaval vein under isoflurane anesthesia, and their kidneys were excised after they were confirmed to be euthanized. After the tissue surface was washed with physiological saline, each tissue was measured for its weight and homogenized in 4 volumes of purified water under ice cooling. The drug concentration in each homogenate was determined in the same manner as shown in Test Example 2(1) by LC-MS/MS using compound 11 as an internal standard substance.

[2] = test system: streptozotocin diabetic model rats; assay: Oral glucose tolerance test (hypoglycemic effect) in streptozotocin diabetic model rats; assay type: in vivo, SD/IGS rats; conditions: for STZ rats OGTT % inhibition ΔAUC0-1h (mg/dl) @ 1 mg/kg/po: STZ-induced diabetic rats versus vehicle control, oral dose 1 mg/kg, glucose 2 g/kg
Method: (§4) Test Example 3 Confirmation study of hypoglycemic effect in streptozotocin diabetic model rats
(§5) (1) Preparation of Diabetic Model Rats
(§6) SD/IGS rats at 7 weeks of age (male, Charles River Laboratories Japan Inc.) were fasted for about 16 hours and then injected with 50 mg/kg streptozotocin (STZ) via the caudal vein under ether anesthesia to prepare diabetic model rats. Similarly, another group of SD/IGS rats at 7 weeks of age was injected with 1.25 mmol/L citric acid in physiological saline (1 mL/kg) via the caudal vein under ether anesthesia to prepare normal control rats. At one week after injection of STZ or 1.25 mmol/L citric acid in physiological saline, the rats (8 weeks old) were provided for an oral glucose tolerance test.
(§7) (2) Oral Glucose Tolerance Test
(§8) […] At 5 minutes after drug administration, a glucose solution (2 g/kg) was orally administered to each rat, and the blood was collected at a total of 5 time points: before drug administration (0 time), and at 0.25, 0.5, 1 and 2 hours after the oral administration.
(§9) Blood was collected from the caudal veins of the rats under ether anesthesia with the use of a heparin-coated blood collecting tube and centrifuged, whereafter blood plasma was separated. Plasma glucose concentrations were quantified by measurement with a Glucose CII-Test Wako (Wako Pure Chemical Industries, Ltd., Japan). To determine the intensity of hypoglycemic effect, the blood glucose level before drug administration was subtracted from each blood glucose level measured until one hour after oral administration in each drug group, and the resulting values were analyzed by the trapezoidal method to calculate an increment in the area under the curve for glucose (ΔAUC), which was expressed as a decrease relative to ΔAUC of the control group.

[3] = Renal concentrations until one week after single oral administration; assay type: in vivo, SD/IGS rats; conditions: male Sprague-Dawley rats
Method: (1) Changes in Renal Concentrations of Compounds 4, 10, 11 and 33 Disclosed in WO2007/136116 Until One Week After Oral Administration
SD/IGS rats at 7 weeks of age (male, non-fasting, Charles River Laboratories Japan Inc.) were orally administered with compound 4, 10 or 33 (1 mg/kg each) or compound 11 (0.3 mg/kg) prepared in a 0.5% aqueous solution of CMC. At 24, 72 and 168 hours after drug administration, the rats were exsanguinated via the postcaval vein under ether anesthesia, and their kidneys were excised after they were confirmed to be euthanized. After the tissue surface was washed with physiological saline, each tissue was measured for its weight and homogenized in 4 volumes of purified water under ice cooling. To each homogenate, an acetonitrile/methanol solution containing an internal standard substance was added to remove proteins, and the supernatant was then subjected to LC-MS/MS (Applied Biosystems API3000). Drug-derived ions generated by electrospray ionization in positive ion mode were detected by selective reaction monitoring. The peak area of the resulting extracted ion chromatogram was analyzed by the internal standard method to calculate the drug concentration in the homogenate.
As the internal standard material for compounds 10 and 33, (1S)-1,5-anhydro-1-[5-(4-ethoxybenzyl)-2-methoxy-4-methylphenyl]-1-thio-D-glucitol,ethyl-D5 was used. As the internal standard materials for compounds 4 and 11, compound 11 and deuterium-labeled compound 11 (trishydroxymethyl-D6; —C(CD2OH)3), respectively, were used.

[4] = Oral glucose tolerance test (hypoglycemic effect) in streptozotocin diabetic model rats; assay type: in vivo, SD/IGS rats; conditions: OGTT using Sprague-Dawley rats, not STZ rats; oral dose 1 mg/kg
Method: as §4, §5, §6, §7, §8, §9

Row | SMILES | Concentration of compounds in kidney after single oral administration, After 1 day ([3]; 1 mg/kg po, 1 day (24 hours)) [ng/g] | Concentration of compounds in kidney after single oral administration, After 3 days ([3]; 1 mg/kg po, 3 days (72 hours)) [ng/g] | Concentration of compounds in kidney after single oral administration, After 7 days ([3]; 1 mg/kg po, 7 days (168 hours)) [ng/g] | STZ rats OGTT % inhibition ΔAUC0-1h (mg/dl) @ 1 mg/kg/po [2] [%] | other results
1 | COc1cc(C(C)C)c(Cc2ccc(/C=C/C(C)(C)C(=O)NC(C)(C)C(N)=O)cc2C)cc1[C@@H]1O[C@H](CO)[C@@H](O)[C@H](O)[C@H]1O [Compound (I)] |  |  |  |  | IC50 (human SGLT2): 554 nM; IC50 (human SGLT1): 65 nM; remaining in the kidney (in words) ([1]; 3 mg/kg for 3 consecutive days, at subsequent day 2): did not remain in the kidney; Concentration of compounds in kidney after 3 days continuous oral administration, After 2 days ([1]; 3 mg/kg po once a day for 3 days, male Sprague-Dawley rats, 48 hours after final administration, limit of detection 5 ng/g): ND^# (ND (not determined) means limit of detection (5 ng/g).); hypoglycemic action (in words) ([2]; glucose tolerance test, compound of the invention): potent hypoglycemic action
2 | Cc1cc(O)c([C@@H]2O[C@H](CO)[C@@H](O)[C@H](O)[C@H]2O)cc1Cc1ccc(CCCC(=O)NC(C)(C)C(N)=O)cc1 [compound 4] | 68.4 ± 7.49 | 85.5 ± 23.1 | 76.3 ± 15.5 | 51 | 
3 | Cc1cc(O)c([C@@H]2O[C@H](CO)[C@@H](O)[C@H](O)[C@H]2O)cc1Cc1ccc(CCNC(=O)NC(C)(C)CO)cc1 [compound 10] | 167 ± 36.3 | 124 ± 12.2 | 53.8 ± 7.6 | 69 | 
4 | Cc1cc(O)c([C@@H]2O[C@H](CO)[C@@H](O)[C@H](O)[C@H]2O)cc1Cc1ccc(CCNC(=O)NC(CO)(CO)CO)cc1 [compound 11] |  |  |  | 68 | Concentration of compounds in kidney after single oral administration, After 1 day ([3]; 0.3 mg/kg po (footnote *), 1 day, mean ± S.D.): 63.5 ± 20.1* ng/g; Concentration of compounds in kidney after single oral administration, After 3 days ([3]; 0.3 mg/kg po (footnote *), 3 days, mean ± S.D.): 67.3 ± 3.15* ng/g; Concentration of compounds in kidney after single oral administration, After 7 days ([3]; 0.3 mg/kg po (footnote *), 7 days, mean ± S.D.): 48.7 ± 18.3* ng/g
5 | Cc1cc(O)c([C@@H]2O[C@H](CO)[C@@H](O)[C@H](O)[C@H]2O)cc1Cc1ccc(CCNC(=O)NC2CCN(Cc3ccccc3)CC2)cc1 [compound 33] | 29.8 ± 6.79 | 25.5 ± 8.68 | 16.2 ± 3.11 |  | OGTT % inhibition ΔAUC0-1h (mg/dl) @ 1 mg/kg/po [4]: 81^# %
